From patent publication US5328906A, “0-(3-amino-2-hydroxypropyl)-hydroximic acid halides and process for preparing the same” (Biorex Kutato-Fejleszto KFT, priority 1993, dated 1994)

Assays:
[1] = acute toxicity LD50 on Wistar rats; conditions: rat, in vivo, iv
diabetic aorta = experiment: beta-blocking effect on diabetic (Streptosotocin treated) rat aorta spiral and/or ring preparate, noradrenalin contractions; conditions: aorta spiral of diabetic animals treated with Streptosotocin
Protocol: (§1) The beta-blocking effect of the compounds according to the present invention was tested on rat aorta spiral and/or ring preparate <J. Pharmacol. Exp. Therap. 158, 531 (1967)>. The experimental diabetes was induced with Streptosotocin <2-(3-nitroso-3-methylureido)-2-deoxy-D-glucose>. The reaction was evaluated as positive when the alpha stimulating effect of the noradrenalin on the control preparate, i.e. that having not been treated with Streptosotocin, was not influenced, but protected on the diabetic aorta. In the tests carried out with the compounds according to the present invention a general selective effect occurred, manifesting in case of diabetic tests in a strong, in case of normal tests in the absence of or in the presence of only a slight beta-blocking effect.
Experiments were carried out to study whether on the aorta spiral preparates of diabetic animals treated with Streptosotocin the Inderal protects the contractions induced by noradrenalin. As control, animals previously not treated with Streptosotocin were used. The results obtained essentially conformed to those known from the literature <Amer. […] (Endocrinology. Vol. 93, No. 3, September 1973). […]

[2] = test system: control preparate (rat aorta); experiment: beta-blocking effect on control (not Streptosotocin treated) rat aorta spiral and/or ring preparate, noradrenalin contractions; conditions: aorta spiral of animals not treated with Streptosotocin (normal tests)
Protocol: as §1
Experiments were carried out to study whether on the aorta spiral preparates of diabetic animals treated with Streptosotocin the Inderal protects the contractions induced by noradrenalin. As control, animals previously not treated with Streptosotocin were used. The results obtained essentially conformed to those known from the literature <Amer. […] (Endocrinology. Vol. 93, No. 3, September 1973).

Row | SMILES | LD50 [1] [mg/kg] | protection against the alpha stimulating effect (contractions) of noradrenalin (diabetic aorta) | protection against the alpha stimulating effect (contractions) of noradrenalin [2]
1 | OC(CON=C(Cl)c1cccnc1)CN1CCCCC1 (stereo not drawn) [Example 5, O-(3-piperidino-2-hydroxy-propyl)-3-piridyl-hydroximic acid chloride] | 110 | – | –
2 | CC(C)NCC(O)COc1cccc2ccccc12 (stereo not drawn) [Inderal, 1-isopropylamino-3-(naphtyloxy)-propan-2-ol] | – | the alpha stimulating effect of noradrenalin was protected by the Inderal in diabetic tests | not in the normal tests
